Data reported in ChEMBL document CHEMBL4715869, “N-(Pyrimidin-2-yl)-1,2,3,4-tetrahydroisoquinolin-6-amine Derivatives as Selective Janus Kinase 2 Inhibitors for the Treatment of Myeloproliferative Neoplasms” (J Med Chem, 2020).

Key:
[1] = Selectivity index, ratio of IC50 for inhibition of recombinant human TYK2 (875 to end residues) to IC50 for inhibition of recombinant human JAK2 (808 to end residues)
[2] = test system: SET-2; assay: Induction of apoptosis in human SET-2 cells assessed as live cells at 1.6 uM incubated for 24 hrs by Annexin V/PI staining based flow cytometric analysis (reference value: 96.23 %); format: functional
[3] = test system: SET-2; assay: Induction of apoptosis in human SET-2 cells assessed as late apoptotic cells at 0.2 uM incubated for 24 hrs by Annexin V/PI staining based flow cytometric analysis (reference value: 1.52%); format: functional
[4] = Toxicity in Balb/c mouse assessed as effect on hematocrit at 30 to 60 mg/kg, po administered daily for 14 days; format: organism-based; conditions: in vivo, 336 h, dose 30-60 mg/kg, time 14 day
[5] = test system: SET-2; assay: Induction of apoptosis in human SET-2 cells assessed as necrotic cells at 0.05 uM incubated for 24 hrs by Annexin V/PI staining based flow cytometric analysis (reference value: 0.78%); format: functional
[6] = Apparent clearance in Sprague-Dawley rat at 5 mg/kg, iv administered […] measured upto 24 hrs by LC/MS/MS analysis; format: ADME, organism-based; conditions: in vivo, read-out: CL(app) (converted)
[7] = test system: SET-2; assay: Induction of apoptosis in human SET-2 cells assessed as early apoptotic cells at 0.4 uM incubated for 24 hrs by Annexin V/PI staining based flow cytometric analysis (reference value: 1.47 %); format: functional
[8] = test system: SET-2; assay: Induction of apoptosis in human SET-2 cells assessed as late apoptotic cells at 0.8 uM incubated for 24 hrs by Annexin V/PI staining based flow cytometric analysis (reference value: 1.52%); format: functional
[9] = test system: SET-2; assay: Antitumor activity against human SET2 cells xenografted in NOD/SCID mouse assessed as tumor growth inhibition at 30 mg/kg, po qd administered for 16 days and measured every 2 days relative to control; format: functional; conditions: SET-2, po, 384 h, time 16 day, read-out: TGI
[10] = test system: SET-2; assay: Induction of apoptosis in human SET-2 cells assessed as late apoptotic cells at 0.4 uM incubated for 24 hrs by Annexin V/PI staining based flow cytometric analysis (reference value: 1.52%); format: functional
[11] = Tmax in male Sprague-Dawley rat at 5 mg/kg, po administered via gavage measured upto 24 hrs by LC/MS/MS analysis; format: ADME, organism-based; conditions: in vivo
[12] = test system: SET-2; assay: Induction of apoptosis in human SET-2 cells assessed as necrotic cells at 0.2 uM incubated for 24 hrs by Annexin V/PI staining based flow cytometric analysis (reference value: 0.78%); format: functional
[13] = AUC (0 to t) in Sprague-Dawley rat at 5 mg/kg, iv administered […] measured upto 24 hrs by LC/MS/MS analysis; format: ADME, organism-based; design: route intravenous, dose 5 mg/kg, time <=24; conditions: in vivo
[14] = test system: SET-2; assay: Induction of apoptosis in human SET-2 cells assessed as live cells at 0.8 uM incubated for 24 hrs by Annexin V/PI staining based flow cytometric analysis (reference value: 96.23 %); format: functional
[15] = Cmax in male Sprague-Dawley rat at 5 mg/kg, po administered via gavage measured upto 24 hrs by LC/MS/MS analysis; format: ADME, organism-based; design: route oral, dose 5 mg/kg, time <=24; conditions: in vivo
[16] = target: Non-receptor tyrosine-protein kinase TYK2 (Homo sapiens, UniProt P29597); assay: Inhibition of recombinant human TYK2 (875 to end residues) using GGMEDIYFEFMGGKKK as substrate incubated for 40 mins in presence of [gamma33P]ATP by scintillation counting based radiometry assay
Chain of Non-receptor tyrosine-protein kinase TYK2 (P29597 whole entry): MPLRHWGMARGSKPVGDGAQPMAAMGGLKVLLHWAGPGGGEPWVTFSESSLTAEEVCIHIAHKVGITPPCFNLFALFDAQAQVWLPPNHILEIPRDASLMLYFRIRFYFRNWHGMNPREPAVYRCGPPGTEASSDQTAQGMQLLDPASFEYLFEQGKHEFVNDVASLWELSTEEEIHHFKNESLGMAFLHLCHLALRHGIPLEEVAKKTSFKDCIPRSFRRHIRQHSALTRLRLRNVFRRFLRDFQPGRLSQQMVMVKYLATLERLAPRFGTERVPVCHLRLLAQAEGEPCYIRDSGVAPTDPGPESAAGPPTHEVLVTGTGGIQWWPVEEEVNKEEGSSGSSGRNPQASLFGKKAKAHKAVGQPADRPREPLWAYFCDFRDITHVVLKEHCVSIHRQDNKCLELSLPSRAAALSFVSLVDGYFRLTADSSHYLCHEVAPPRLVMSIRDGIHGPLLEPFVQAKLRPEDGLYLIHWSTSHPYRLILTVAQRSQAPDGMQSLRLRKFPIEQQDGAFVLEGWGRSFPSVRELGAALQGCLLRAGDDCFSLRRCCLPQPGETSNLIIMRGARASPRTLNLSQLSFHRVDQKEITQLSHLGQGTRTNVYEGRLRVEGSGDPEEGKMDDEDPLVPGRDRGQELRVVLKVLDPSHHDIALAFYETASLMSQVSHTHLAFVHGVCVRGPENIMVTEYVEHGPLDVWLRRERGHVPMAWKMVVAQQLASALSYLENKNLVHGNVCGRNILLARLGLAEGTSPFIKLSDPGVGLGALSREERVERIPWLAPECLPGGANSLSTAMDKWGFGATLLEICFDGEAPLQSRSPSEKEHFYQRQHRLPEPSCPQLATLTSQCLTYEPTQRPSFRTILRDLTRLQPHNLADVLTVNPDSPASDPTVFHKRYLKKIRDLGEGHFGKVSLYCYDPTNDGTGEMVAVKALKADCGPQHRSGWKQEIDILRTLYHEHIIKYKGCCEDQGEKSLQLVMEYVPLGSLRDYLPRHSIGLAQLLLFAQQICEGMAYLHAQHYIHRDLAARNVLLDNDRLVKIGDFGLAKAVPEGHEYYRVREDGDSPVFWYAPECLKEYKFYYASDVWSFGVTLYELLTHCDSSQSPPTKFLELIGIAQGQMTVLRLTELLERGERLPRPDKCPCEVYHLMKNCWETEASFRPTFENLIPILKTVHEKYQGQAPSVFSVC

[17] = Selectivity index, ratio of IC50 for inhibition of human JAK1 (866 to end residues) to IC50 for inhibition of recombinant human JAK2 (808 to end residues)
[18] = test system: SET-2; assay: Induction of apoptosis in human SET-2 cells assessed as live cells at 0.4 uM incubated for 24 hrs by Annexin V/PI staining based flow cytometric analysis (reference value: 96.23 %); format: functional
[19] = Apparent clearance in Sprague-Dawley rat at 5 mg/kg, po administered via gavage measured upto 24 hrs by LC/MS/MS analysis; format: ADME, organism-based; conditions: in vivo, read-out: CL(app) (converted)
[20] = test system: SET-2; assay: Induction of apoptosis in human SET-2 cells assessed as early apoptotic cells at 0.05 uM incubated for 24 hrs by Annexin V/PI staining based flow cytometric analysis (reference value: 1.47 %); format: functional
[21] = test system: SET-2; assay: Antitumor activity against human SET2 cells xenografted in NOD/SCID mouse assessed as tumor growth inhibition at 15 mg/kg, po qd administered for 16 days and measured every 2 days relative to control; format: functional; conditions: SET-2, po, 384 h, time 16 day, read-out: TGI
[22] = test system: SET-2; assay: Induction of apoptosis in human SET-2 cells assessed as necrotic cells at 1.6 uM incubated for 24 hrs by Annexin V/PI staining based flow cytometric analysis (reference value: 0.78%); format: functional
[23] = Metabolic stability in rat liver microsomes assessed as half-life; format: ADME, Microsome
[24] = Selectivity index, ratio of IC50 for inhibition of recombinant human FLT3 D835Y mutant (564 to end residues) to IC50 for inhibition of recombinant human JAK2 (808 to end residues)
[25] = target: Tyrosine-protein kinase JAK1 (Homo sapiens, UniProt P23458); assay: Inhibition of human JAK1 (866 to end residues) using GEEPLYWSFPAKKK as substrate after 40 mins by [gamma-33ATP] radiometric assay
Chain of Tyrosine-protein kinase JAK1 (P23458 whole entry): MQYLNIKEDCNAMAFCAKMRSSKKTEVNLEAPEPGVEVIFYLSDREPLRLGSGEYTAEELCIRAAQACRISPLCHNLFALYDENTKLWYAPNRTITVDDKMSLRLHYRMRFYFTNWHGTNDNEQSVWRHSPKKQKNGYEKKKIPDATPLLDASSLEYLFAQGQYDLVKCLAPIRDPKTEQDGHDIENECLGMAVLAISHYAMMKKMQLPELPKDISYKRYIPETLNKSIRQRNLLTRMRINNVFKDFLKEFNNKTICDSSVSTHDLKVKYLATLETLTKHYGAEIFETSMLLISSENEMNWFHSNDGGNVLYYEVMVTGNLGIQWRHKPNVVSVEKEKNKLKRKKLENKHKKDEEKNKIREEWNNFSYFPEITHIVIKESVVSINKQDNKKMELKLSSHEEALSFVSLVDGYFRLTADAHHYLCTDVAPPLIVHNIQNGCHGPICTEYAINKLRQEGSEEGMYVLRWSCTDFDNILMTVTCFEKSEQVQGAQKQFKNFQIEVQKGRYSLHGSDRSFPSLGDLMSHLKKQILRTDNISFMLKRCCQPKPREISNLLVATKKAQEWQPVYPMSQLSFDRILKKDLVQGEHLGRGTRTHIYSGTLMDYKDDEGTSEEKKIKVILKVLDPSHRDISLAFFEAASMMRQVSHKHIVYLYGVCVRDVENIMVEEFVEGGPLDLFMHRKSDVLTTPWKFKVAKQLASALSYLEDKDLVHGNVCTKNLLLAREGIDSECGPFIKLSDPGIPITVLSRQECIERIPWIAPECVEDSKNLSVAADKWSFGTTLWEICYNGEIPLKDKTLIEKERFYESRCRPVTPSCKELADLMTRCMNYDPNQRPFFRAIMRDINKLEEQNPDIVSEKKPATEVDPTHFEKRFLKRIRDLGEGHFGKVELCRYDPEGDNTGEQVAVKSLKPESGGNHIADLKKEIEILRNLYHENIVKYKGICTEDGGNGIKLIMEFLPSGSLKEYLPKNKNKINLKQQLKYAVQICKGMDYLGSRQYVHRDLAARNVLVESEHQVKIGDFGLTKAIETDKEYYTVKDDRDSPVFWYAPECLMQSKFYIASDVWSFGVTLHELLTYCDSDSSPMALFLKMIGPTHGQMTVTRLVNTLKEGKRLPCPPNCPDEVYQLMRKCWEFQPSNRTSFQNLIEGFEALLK

[26] = Elimination half life in male Sprague-Dawley rat at 5 mg/kg, po administered via gavage measured upto 24 hrs by LC/MS/MS analysis; format: ADME, organism-based; conditions: in vivo, read-out: beta t1/2 (converted)
[27] = test system: SET-2; assay: Induction of apoptosis in human SET-2 cells assessed as late apoptotic cells at 0.05 uM incubated for 24 hrs by Annexin V/PI staining based flow cytometric analysis (reference value: 1.52%); format: functional
[28] = test system: SET-2; assay: Induction of apoptosis in human SET-2 cells assessed as necrotic cells at 0.4 uM incubated for 24 hrs by Annexin V/PI staining based flow cytometric analysis (reference value: 0.78%); format: functional
[29] = test system: SET-2; assay: Induction of apoptosis in human SET-2 cells assessed as late apoptotic cells at 1.6 uM incubated for 24 hrs by Annexin V/PI staining based flow cytometric analysis (reference value: 1.52%); format: functional
[30] = test system: Vero; assay: Cytotoxicity against African green monkey Vero cells assessed as reduction in cell viability incubated for 72 hrs by MTT assay; format: cell-based; conditions: Chlorocebus sabaeus

Question: For Cc1cnc(Nc2ccc3c(c2)CCN(C(=O)/C=C/CN(C)C)C3)nc1-c1cnn(C(C)C)c1, which Ratio IC50 [1] is on record?
Answer: The Ratio IC50 was 25.

Question: And the Activity [2]?
Answer: The Activity was 23.03%.

Question: What about the Activity [3] of the same compound?
Answer: Its Activity is 5.66%.

Question: What about the Activity [4] of the same compound?
Answer: Its Activity is “Toxic”.

Question: What about the Activity [5] of the same compound?
Answer: The Activity was 0.35%.

Question: And the clearance [6]?
Answer: Its clearance is 83.5 mL/min/kg.

Question: What about the Activity [7] of the same compound?
Answer: The Activity was 5.92%.

Question: And the Activity [8]?
Answer: Its Activity is 40.19%.

Question: And the inhibition in vivo at 30 mg/kg [9]?
Answer: Its inhibition in vivo at 30 mg/kg is 67.8%.

Question: And the Activity [10]?
Answer: The Activity was 8.68%.

Question: And the Tmax [11]?
Answer: Its Tmax is 54 min.

Question: And the Activity [12]?
Answer: Its Activity is 0.63%.

Question: And the AUC(0-t) at 24 h [13]?
Answer: The AUC(0-t) at 24 h was 988 ng·h/mL.

Question: What about the Activity [14] of the same compound?
Answer: The Activity was 49.33%.

Question: And the Cmax [15]?
Answer: The Cmax was 51.1 ng/mL.

Question: What about the IC50 [16] of the same compound?
Answer: The IC50 was 75 nM.

Question: What about the Ratio IC50 [17] of the same compound?
Answer: The Ratio IC50 was 14.

Question: And the Activity [18]?
Answer: The Activity was 84.92%.

Question: What about the CL/F [19] of the same compound?
Answer: Its CL/F is 480 mL/min/kg.

Question: What about the Activity [20] of the same compound?
Answer: Its Activity is 2.7%.

Question: What about the inhibition in vivo at 15 mg/kg [21] of the same compound?
Answer: Its inhibition in vivo at 15 mg/kg is 51.4%.

Question: What about the Activity [22] of the same compound?
Answer: The Activity was 4.04%.

Question: And the half-life [23]?
Answer: Its half-life is 54.6 min.

Question: And the Ratio IC50 [24]?
Answer: Its Ratio IC50 is 20.7.

Question: What about the IC50 [25] of the same compound?
Answer: The IC50 was 42 nM.

Question: What about the half-life [26] of the same compound?
Answer: The half-life was 108 min.

Question: What about the Activity [27] of the same compound?
Answer: Its Activity is 2.34%.

Question: And the Activity [28]?
Answer: The Activity was 0.48%.

Question: And the Activity [29]?
Answer: The Activity was 45.54%.

Question: What about the IC50 [30] of the same compound?
Answer: The IC50 was 6750 nM.
